From ChEMBL document CHEMBL5104147, “Biocatalytic synthesis and evaluation of antioxidant and antibacterial activities of hydroxyequols” (Bioorg Med Chem Lett, 2022)
Converted amounts (≈) assume the structure as drawn.

Assays:
Type in all cases: functional
[1] = system: Bacillus subtilis; test: Antibacterial activity against Bacillus subtilis assessed as inhibition of bacterial growth
[2] = system: Bacillus subtilis; test: Bactericidal activity against Bacillus subtilis assessed as decrease in cell survival
[3] = Antioxidant activity assessed as DPPH radical scavenging activity by DPPH assay
[4] = Antioxidant activity assessed as trolox equivalent of DPPH radical scavenging activity by DPPH assay relative to trolox
[5] = system: Escherichia coli; test: Antibacterial activity against Escherichia coli assessed as inhibition of bacterial growth
[6] = system: Escherichia coli; test: Bactericidal activity against Escherichia coli assessed as decrease in cell survival

MIC [1] [µg/mL]	IC50 [3] [µM]	MIC [5] [µg/mL]	Compound	MBC [2] [µg/mL]	Ratio IC50 [4]	MBC [6] [µg/mL]
256 (≈ 991 µM)	250	512 (≈ 1980 µM)	Oc1ccc2c(c1)OC[C@H](c1ccc(O)c(O)c1)C2	512 (≈ 1980 µM)	1.02	512 (≈ 1980 µM)
256 (≈ 933 µM)	112	128 (≈ 467 µM)	Oc1ccc([C@H]2COc3cc(O)c(O)cc3C2)cc1O	256 (≈ 933 µM)	2.28	> 1020
64 (≈ 264 µM)	52000	256 (≈ 1060 µM)	Oc1ccc([C@H]2COc3cc(O)ccc3C2)cc1 [AUS-131]	256 (≈ 1060 µM)	4.99 10^-3No_unit	> 1020
128 (≈ 496 µM)	233	64 (≈ 248 µM)	Oc1ccc([C@H]2COc3cc(O)c(O)cc3C2)cc1	128 (≈ 496 µM)	1.08	64 (≈ 248 µM)

The remaining lines, values behind:

Compound	MIC [1] [µg/mL]	IC50 [3] [µM]	MIC [5] [µg/mL]	MBC [2] [µg/mL]	Ratio IC50 [4]	MBC [6] [µg/mL]
O=c1c(-c2ccc(O)cc2)coc2cc(O)ccc12 [DAIDZEIN]	> 1020	–	> 1020	–	–	–
Cc1c(C)c2c(c(C)c1O)CCC(C)(C(=O)O)O2 (configuration not stated) [TROLOX]	–	249	–	–	–	–
